From article PMC5458211, “Mitochondrial VDAC1-based peptides: Attacking oncogenic properties in glioblastoma” (Oncotarget, 2017)
Non-standard residues stand in square brackets, D forms with d. Residues, ends and D or L forms follow the SMILES beside them.

Legend:
G7 stem cells = assay: Apoptosis by FITC-Annexin V/PI staining and flow cytometry, G7; type: cell-based, GBM patient; details: 3 h at 37°C, Fig 6G-H
Description: Sections were also hematoxylin-stained and visualized by microscopy. B. Tissue lysates obtained from controls and several TF-D-LP4-TTs were immunoblotted for Nestin, Sox2, NGFR, CD133, and Klf4. C. Quantitative analysis of immunoblots is shown (n=2-4). D. Immunoblot analysis of, Klf4, Sox2, Nestin and Musashi expression in U-87MG and G7 cell lines, using specific antibodies. E. Quantitative analysis of immunoblots. […] G. G7 (·) and U-87MG cells (○) (2×10^5) were incubated for 3 h with the DMSO (0.15%) or with the indicated concentration of Retro-Tf-D-LP4 peptide in serum-free growth medium at 37°C and then subjected to FITC-Annexin V/PI staining and flow cytometry analysis. H. Representative FACS analysis of DMSO- (left) and 5 μM of Retro-Tf-D-LP4- (right) treated G7 or U-87MG cells.
Cells (6×10^5 /ml) were incubated in 500 μl serum-free medium with the peptide of interest for 6 h at 37°C in the presence of 5% CO2. The cells were then trypsinized, centrifuged (1500xg, 5 min), washed with PBS and analyzed for cell death using propidium iodide (PI) staining and flow cytometer (Beckton-Dickinson, San Jose, CA) and BD CellQuest Pro software. Apoptotic cell death was also analyzed by PI and annexin V-FITC staining, and by acridine orange and ethidium bromide staining and light microscopy (Olympus LX2-KSP).

U-87MG cells = assay: Cell death in U-87MG by free and PLGA-encapsulated peptide; type: cell-based, human; details: 12 h, PI staining and FACS; Fig 7B
Description: B. U-87MG cells (2×10^5) were incubated for 12 h with the indicated concentrations of DMSO, Retro-Tf-D-LP4 peptide (Pep), or Retro-Tf-D-LP4 encapsulated in PLGA nanoparticles (PLGA-Pep). Samples of Retro-Tf-D-LP4 encapsulated in PLGA nanoparticles were centrifuged (15000g, 5 min) to separate the supernatant (Sup), containing free peptide, and the pellet, containing encapsulated Retro-Tf-D-LP4 peptide. Cell death was analyzed by PI staining and FACS analysis. C. Graphical representation of the orthotopic animal experiment. […] E. Calculated tumor volumes after 20 (dark grey bars) and 29 (light grey bars) days post-treatment start. […]
100% DMSO and then diluted 20-fold with sterile DDW into three groups (6 animals/group) and treated every to reach a concentration of 25 mg/ml in a final DMSO third day with DMSO (1.44%), Retro-Tf-D-LP4 (10 concentration of 5%. PLGA (50 mg) was dissolved in mg/kg) or Retro-Tf-D-LP4 (10 mg/kg) encapsulated by acetone (1 ml). […] Tumor volume was analyzed using VivoQuant 2.10 10 ml of aqueous solution containing 1% PVA (w/v). […]
(Calbiochem, UK). […] Thirteen days post-inoculation, using various primary antibodies (sources and dilutions tumor volume was measured and calculated (100-130 as detailed in supplementary Table 2), followed by mm3) and mice were randomized into three groups (5 the appropriate HRP-conjugated secondary antibodies mice/group). […]

[1] = Blood-brain barrier crossing in the intracranial xenograft model; type: in vivo, mouse; details: i.v.; concluded from intracranial tumor model
Description: B. U-87MG cells (2×10^5) were incubated for 12 h with the indicated concentrations of DMSO, Retro-Tf-D-LP4 peptide (Pep), or Retro-Tf-D-LP4 encapsulated in PLGA nanoparticles (PLGA-Pep). Samples of Retro-Tf-D-LP4 encapsulated in PLGA nanoparticles were centrifuged (15000g, 5 min) to separate the supernatant (Sup), containing free peptide, and the pellet, containing encapsulated Retro-Tf-D-LP4 peptide. Cell death was analyzed by PI staining and FACS analysis. C. Graphical representation of the orthotopic animal experiment. D. MRI imaging of brains 29 days post-intravenal treatment start with DMSO (1.05%), Retro-Tf-D-LP4 (10 mg/kg) encapsulated in PLGA nanoparticles or Tf-D-Retro-LP4 peptide (10 mg/Kg), as described in Materials and Methods available online in Supplemental information. E. Calculated tumor volumes after 20 (dark grey bars) and 29 (light grey bars) days post-treatment start. Results = mean ± SE (n = 6) (* p<0.05, *** p<0.001). F. Kaplan-Meier survival curves showing statistically significant differences in survival curves between the PBS/DMSO and Retro-Tf-D-LP4 treated mice. […]
For the intracranial-orthotopic xenograft mouse model, U-87MG cells (8×10^4) were engrafted into a nude mouse brain using a stereotactic device. […] Tumor volume was analyzed using VivoQuant 2.10 software.

cancer cells = details: ref [23]; cited from earlier work
Description: D-ΔN-Ter-Antp is composed of Antp (Penetrating), a 16 residue-long sequence from the Drosophila antennapedia-homeodomain, fused to a VDAC1-N-terminal sequence, both containing amino ...

Compound	apoptosis of G7 stem cells (G7 stem cells)	cell death, U-87MG (U-87MG cells)	crossing of the blood-brain barrier / reaching the brain [1]	cell death induction, selection among over 40 versions (cancer cells)
CC[C@H](C)[C@H](NC(=O)[C@H](Cc1ccc(O)cc1)NC(=O)[C@@H]1CCCN1C(=O)[C@H](CCCNC(=N)N)NC(=O)[C@H](Cc1c[nH]cn1)NC(=O)[C@H](CO)NC(=O)[C@H](Cc1c[nH]c2ccccc12)NC(=O)[C@@H](NC(=O)[C@H](Cc1c[nH]c2ccccc12)NC(=O)[C@H](CCC(=O)O)NC(=O)[C@@H](CCCCN)NC(=O)[C@@H](CCCCN)NC(=O)[C@@H](CC(C)C)NC(=O)[C@@H](CCC(=O)O)NC(=O)[C@H](NC(=O)[C@@H](C)NC(=O)[C@H](NC(=O)[C@@H](CC(N)=O)NC(=O)[C@@H](CC(C)C)NC(=O)[C@@H](C)NC(=O)[C@@H](Cc1c[nH]c2ccccc12)NC(=O)[C@H](NC(=O)[C@@H](C)NC(=O)CNC(=O)[C@@H](CC(N)=O)NC(=O)[C@@H](CO)NC(=O)[C@@H](CC(N)=O)NC(=O)[C@H](CCCCN)NC(=O)[C@H](Cc1c[nH]c2ccccc12)NC(=O)[C@@H](NC(=O)[C@H](Cc1c[nH]c2ccccc12)NC(=O)[C@@H](N)CCCCN)[C@@H](C)O)[C@H](C)O)C(C)C)[C@H](C)O)[C@@H](C)O)C(=O)N[C@@H](C)C(=O)N[C@@H](Cc1c[nH]cn1)C(=O)O [Retro-Tf-D-LP4]	induces apoptosis	induces cell death	able to cross the blood-brain barrier in vivo	
CC[C@@H](C)[C@@H](NC(=O)[C@@H](CCCCN)NC(=O)[C@H](NC(=O)[C@@H](CCC(N)=O)NC(=O)[C@@H](CCCNC(=N)N)NC(=O)[C@@H](CC(C)C)NC(=O)CNC(=O)[C@@H](Cc1ccccc1)NC(=O)CNC(=O)[C@@H](Cc1ccc(O)cc1)NC(=O)CNC(=O)[C@@H](CCCCN)NC(=O)[C@H](NC(=O)[C@@H](Cc1ccccc1)NC(=O)[C@H](NC(=O)[C@@H](CC(=O)O)NC(=O)[C@H](N)CCCNC(=N)N)C(C)C)[C@H](C)O)[C@H](C)CC)C(=O)N[C@H](Cc1c[nH]c2ccccc12)C(=O)N[C@H](Cc1ccccc1)C(=O)N[C@H](CCC(N)=O)C(=O)N[C@H](CC(N)=O)C(=O)N[C@H](CCCNC(=N)N)C(=O)N[C@H](CCCNC(=N)N)C(=O)N[C@H](CCSC)C(=O)N[C@H](CCCCN)C(=O)N[C@H](Cc1c[nH]c2ccccc12)C(=O)N[C@H](CCCCN)C(=O)N[C@H](CCCCN)C(=O)O [D-ΔN-Ter-Antp] (H-[dR][dD][dV][dF][dT][dK]G[dY]G[dF]G[dL][dR][dQ][dI][dK][dI][dW][dF][dQ][dN][dR][dR][dM][dK][dW][dK][dK]-OH; N-terminus and C-terminus assumed)				most active in cell death induction
